The record followed here is ChEMBL document CHEMBL3507680, “University of Dundee, Gates Library screen for HepG2 cell viability”.

Each structure is given as a SMILES string.

This data set is described as follows: Human HepG2 cell viability assay in 384 well format. Also noted: dose 125 nL, time 70.5 hour; concentration not given beside the values. It counts as toxicity, cell-based. The settings on record: HepG2 cells, read-out: Inhibition.
Regarding `NC(=O)c1cc2c(nc1-c1ccoc1)CCC2`, the cytotoxicity at 70.5 h was -6.2%.

For the molecule `CC(=O)N1CCCC1c1cccc(Oc2ccccc2F)n1` (stereo not drawn), the cytotoxicity at 70.5 h was -4.13%.

As for `CSc1ccc(NCc2csc(CS(C)(=O)=O)n2)cc1F`, the cytotoxicity at 70.5 h was -1.97%.

With `CC(C)CC(=O)N1CC[C@H]2N(C)CC[C@@]2(C(=O)Nc2cccnc2)CC1`, the cytotoxicity at 70.5 h is -9.05%.

`Cn1cccc1C(=O)N1C[C@H]2CN(Cc3cccnc3)C[C@H]2C1`: the cytotoxicity at 70.5 h was -1.49%.

For `Cc1oc(C)c(C(=O)NCc2ccccc2CN(C)C)c1C`, the cytotoxicity at 70.5 h turned out to be 16.8%.

As for `O=c1c(NCCCO)c(N2CCN(c3ccccc3)CC2)c1=O`, the cytotoxicity at 70.5 h is -2.43%.

Consider `CC(Cc1cccc(F)c1)C(=O)NS(=O)(=O)c1ccc2c(c1)OCCO2` (stereo not drawn), for which the cytotoxicity at 70.5 h came out at 19.6%.

In the case of `Cc1ccc(CN(C)Cc2ncc(C(C)(C)C)o2)o1`, the cytotoxicity at 70.5 h is 0.445%.

Regarding `O=C(c1ccco1)N1CCC(CSCc2ccco2)CC1`, the cytotoxicity at 70.5 h is -7.2%.

As for `CCCC(=O)N(CC)C(c1cccnc1)c1ccc2c(c1)CCO2` (stereo not drawn), the cytotoxicity at 70.5 h was -4.67%.

Turning to `COc1ccc(-c2cccc(-c3ccn(CCCN(C)C)n3)c2)nn1`, the cytotoxicity at 70.5 h was -13.7%.

For `Cc1cccc(COC[C@@]23CCC[C@@H]2CN(S(=O)(=O)N(C)C)C3)n1`, the cytotoxicity at 70.5 h is -4.49%.

For `Cc1ccc(C(=O)N2CCCS2(=O)=O)cc1Cl`, the cytotoxicity at 70.5 h is -19.9%.

Take `COc1ccc(-c2ccnc3nc(N4CCCC4)[nH]c(=O)c23)cc1OC`: the cytotoxicity at 70.5 h is -9.78%.

In the case of `Cn1ccnc1CN1CCN2C[C@H](Oc3cncnc3)C[C@H]2C1`, the cytotoxicity at 70.5 h amounted to 0.558%.

On to `CSc1cccc(CN2CCn3nc(CNC(C)=O)cc3C2)c1`, for which the cytotoxicity at 70.5 h came out at 5.2%.

Take `O=C(NC[C@H]1OC[C@@H](NC2CCC2)[C@@H]1O)c1cccs1`: the cytotoxicity at 70.5 h was -5.08%.

Take `COc1cc2cc(C(=O)N[C@@H](C)C(=O)O)n(C)c2c(OC)c1OC`: the cytotoxicity at 70.5 h is -4.88%.

Consider `c1cnc(N2CCO[C@H]3[C@H](OCCN4CCCC4)CC[C@@H]32)nc1`, for which the cytotoxicity at 70.5 h amounted to 0.11%.

`CC(CNC(=O)c1cccc(-n2cccn2)n1)Cn1ccnc1` (stereo not drawn): the cytotoxicity at 70.5 h was -2.98%.

Regarding `Cc1ccnc(OC[C@@]23CCO[C@@H]2CCN(C2CCC2)C3)n1`, the cytotoxicity at 70.5 h came out at 4.5%.

As for `CN1CCC(Nc2ccc(F)cc2OCC(F)(F)F)C1=O` (stereo not drawn), the cytotoxicity at 70.5 h is -0.0891%.

In the case of `Cc1nn(C)c(C)c1-c1cc(-c2cc(CC(=O)O)cs2)nc(N)c1C#N`, the cytotoxicity at 70.5 h is -7.79%.

For `CC(C(N)=O)N(C)Cc1ccccc1C(F)(F)F` (stereo not drawn), the cytotoxicity at 70.5 h was -87.9%.

Turning to `O=C(CN1C[C@H]2CC[C@@H]1CN(Cc1ccccn1)C2)NCc1cccs1`, the cytotoxicity at 70.5 h was -7.94%.

Turning to `O=C(CCn1ccccc1=O)N1CCCC(COc2ccc(F)cc2)C1` (stereo not drawn), the cytotoxicity at 70.5 h was -7.1%.

For the molecule `Cc1cncc(C(=O)N[C@@H]2CC[C@@H](N3CCOCC3)[C@@H]2O)c1`, the cytotoxicity at 70.5 h is -8.5%.

In the case of `CNC(=O)c1cnc2n1CCN(Cc1cccnc1)C2`, the cytotoxicity at 70.5 h was -2.74%.

With `O=C(NCc1ccc(F)cc1)NCC(O)(c1ccco1)C1CC1` (stereo not drawn), the cytotoxicity at 70.5 h is 6.32%.

For `Cc1ccc(CN2CCCC(c3nnc(CN4CCCC4)n3C)C2)s1` (stereo not drawn), the cytotoxicity at 70.5 h is -0.483%.

For the molecule `CNC(=O)C1CN(C)CCN1c1nc(C)cc(C)n1` (stereo not drawn), the cytotoxicity at 70.5 h was determined as 14.1%.

Take `c1cc(CN2CC[C@@H]3CN(c4cncnc4)C[C@@H]3C2)ccn1`: the cytotoxicity at 70.5 h was -6.08%.

Consider `Cc1cnn(CCNCc2csc(-c3ccc(F)cc3)n2)c1`, for which the cytotoxicity at 70.5 h worked out at 3.66%.

With `CCC(C)Nc1ccc(-c2nc(-c3cccc(OC)c3OC)no2)cn1` (stereo not drawn), the cytotoxicity at 70.5 h is 13.1%.

In the case of `c1cncc(O[C@H]2CC[C@H]3[C@H]2OCCN3C2CCCC2)c1`, the cytotoxicity at 70.5 h is -1.6%.

As to `O=C(O)c1cc(-c2cc[nH]n2)cc(S(=O)(=O)N2CCCCCC2)c1`, the cytotoxicity at 70.5 h is -4.16%.

In the case of `COCCc1noc(CN2CCCCC2Cn2cc(C)cn2)n1` (stereo not drawn), the cytotoxicity at 70.5 h is -11.7%.

Turning to `CN1CCN([C@@H]2CCN(Cc3ccc4cc(F)ccc4n3)C[C@H]2O)CC1`, the cytotoxicity at 70.5 h was -1.96%.

For the molecule `OCCN1CCN(CCOCC(F)(F)F)CC1`, the cytotoxicity at 70.5 h stood at 10.9%.

In the case of `CCc1cc(CN(Cc2cccnc2)C2CN3CCC2CC3)on1` (stereo not drawn), the cytotoxicity at 70.5 h came to 24.6%.

In the case of `CC(NCCN1CCC(N(C)C)CC1)c1ccc(Cl)s1` (stereo not drawn), the cytotoxicity at 70.5 h was 14.9%.

Regarding `Cc1nc2ccccn2c1CC(=O)N[C@@H]1CC[C@@H](N2CCOCC2)[C@@H]1O`, the cytotoxicity at 70.5 h was -1.29%.

On to `Cc1noc(C)c1CN1CCCC2(CCN(C(=O)NC3CC3)C2)C1` (stereo not drawn), for which the cytotoxicity at 70.5 h came out at 1.02%.

In the case of `COc1ccc(C(O)CN2CC(n3nc(C)cc3C)C2)cc1` (stereo not drawn), the cytotoxicity at 70.5 h came out at 1.87%.

For the molecule `CN(Cc1c(F)cccc1Cl)C(=O)c1cnn(CCN2CCCCC2)c1`, the cytotoxicity at 70.5 h stood at 18.7%.

For the molecule `Cc1nc(C)c(C(=O)NCCNC(=O)Cc2cccc(F)c2)s1`, the cytotoxicity at 70.5 h was -9.52%.

Turning to `CCOC1CC2(CCN(c3cnccn3)CC2)c2ccccc21` (stereo not drawn), the cytotoxicity at 70.5 h was -4.37%.

As for `COc1ccc(OC)c(C2CCN(C3CCOCC3)C2)c1` (stereo not drawn), the cytotoxicity at 70.5 h came to 6.32%.

Regarding `CN1CCN2C[C@@H](NC(=O)c3nc4ccccc4[nH]3)C[C@H]2C1`, the cytotoxicity at 70.5 h is -4.68%.

For `CC(Cc1ccco1)NC(=O)CSc1nnc[nH]1` (stereo not drawn), the cytotoxicity at 70.5 h is -9.49%.

For the molecule `CCn1c(C(=O)N2CCN(C(=O)NC(C)C)CC2)cc2ccccc21`, the cytotoxicity at 70.5 h was -9.47%.

Turning to `O=C(NC[C@@H]1CCCO1)c1cc(Br)cnc1N1CCCCC1`, the cytotoxicity at 70.5 h was -1.68%.

For `OCC1CCCN1c1cc(N2CCc3ccccc3C2)ncn1` (stereo not drawn), the cytotoxicity at 70.5 h came to 31.1%.

Turning to `CCOCC1CN(C(=O)C2=CCCC2)Cc2cnn(C)c21` (stereo not drawn), the cytotoxicity at 70.5 h is -14.7%.

`Cc1ccc(-c2nc(CN3C[C@@H](C)NC[C@@H]3C)c(C)o2)s1`: the cytotoxicity at 70.5 h was -11.5%.

With `Cn1c(-c2ccc(F)cc2)cn2cc(C(=O)N3CC[C@@H](O)C3)nc2c1=O`, the cytotoxicity at 70.5 h is -10.1%.

For the molecule `CCc1nnc(Nc2cccc(C3CCN(CCO)CC3)n2)s1`, the cytotoxicity at 70.5 h was 7.17%.

For the molecule `COc1ccnc(NC(Cc2ccccc2)C(=O)N(C)C)n1` (stereo not drawn), the cytotoxicity at 70.5 h came to 5.68%.

Turning to `CNC(=O)c1cn2cc(-c3ccccc3Cl)n(CC3CC3)c(=O)c2n1`, the cytotoxicity at 70.5 h turned out to be 15.9%.

As for `CS(=O)(=O)N1CCc2nc(NC(=O)Nc3c(F)cccc3F)sc2C1`, the cytotoxicity at 70.5 h was 0.946%.

Regarding `CCNC(=O)N1CCC(NC(=O)NCCc2cc(F)cc(F)c2)C1` (stereo not drawn), the cytotoxicity at 70.5 h stood at 1.55%.

With `CC(=O)N(Cc1ncc(C(C)C)o1)C1CCN(Cc2ncc[nH]2)C1` (stereo not drawn), the cytotoxicity at 70.5 h is 0.135%.

Consider `CC1CN(C(=O)c2ccc(C(N)=O)cc2)c2ccc(F)cc2O1` (stereo not drawn), for which the cytotoxicity at 70.5 h is 2.67%.

Turning to `O=S(=O)(c1ccc(C(F)(F)F)cc1)N1CCC(OCc2ccccn2)C1` (stereo not drawn), the cytotoxicity at 70.5 h came to 1.24%.

With `Cc1nc(-c2ccccc2C(=O)O)cc(C2CCN(C(C)C)C2)n1` (stereo not drawn), the cytotoxicity at 70.5 h turned out to be 10.7%.

Consider `Cc1cnc(NC2CCc3c(ccc(=O)n3C)C2)nc1` (stereo not drawn), for which the cytotoxicity at 70.5 h is -4.77%.

On to `c1ccc(-c2noc(CNC3CCc4ncnn4C3)n2)nc1` (stereo not drawn), for which the cytotoxicity at 70.5 h was -4.56%.

Regarding `Cc1nc(CN2CCC3(C2)CN(C(=O)c2conc2C)C3)cs1`, the cytotoxicity at 70.5 h is -3.94%.

Regarding `CC(CO)CSc1ncnc2[nH]ncc12` (stereo not drawn), the cytotoxicity at 70.5 h was -0.794%.

Regarding `CC(NCc1cc(F)ccc1F)c1ccc(OCC(=O)NC2CC2)cc1` (stereo not drawn), the cytotoxicity at 70.5 h was -1.77%.

As for `CN(CCc1ccccc1)c1cnn(C)c(=O)c1Br`, the cytotoxicity at 70.5 h was -15.5%.

With `COCc1nc(-c2ccnc(N3CCNCC3)n2)no1`, the cytotoxicity at 70.5 h is 2.75%.

Take `COC(=O)[C@@H](NC(=O)Nc1ccc(C(C)=O)cc1)C(C)C`: the cytotoxicity at 70.5 h worked out at 13.3%.

With `CN(CCn1cccn1)c1cc(C(F)(F)F)nc(-c2cccnc2)n1`, the cytotoxicity at 70.5 h is -4.93%.

Turning to `Cc1noc(C)c1CN1CCn2c(COC(C)C)nnc2C1`, the cytotoxicity at 70.5 h is -10.8%.

Regarding `COc1cccc(F)c1C(C)NC(=O)NCc1ccnc(C)n1` (stereo not drawn), the cytotoxicity at 70.5 h turned out to be 26.5%.

`Cn1cc(CN2CCCC(CCc3c(F)cccc3F)C2)cn1` (stereo not drawn): the cytotoxicity at 70.5 h came out at 1.58%.

Turning to `CC(C)N1CC2(CCC1=O)CCN(C(=O)c1cc(F)ccc1Cl)CC2`, the cytotoxicity at 70.5 h was -5.5%.

Take `CCN1CCC2(CC1)CC(NC(=O)c1ccnnc1)c1ccccc12` (stereo not drawn): the cytotoxicity at 70.5 h was found to be 7.06%.

In the case of `Cc1ncsc1-c1nnc(C2CCCN2C(=O)CCn2cccn2)o1` (stereo not drawn), the cytotoxicity at 70.5 h is -9.26%.

Consider `COCCN1CCOCC12CCN(C(=O)c1ccncc1)CC2`, for which the cytotoxicity at 70.5 h is -9.1%.

With `CCNC(=O)[C@@H]1C[C@H](N)CN1C(=O)c1c[nH]c2ccccc12`, the cytotoxicity at 70.5 h was -0.954%.

Take `CCc1nc(C)sc1C(=O)N1CCN(c2ncccc2C)CC1`: the cytotoxicity at 70.5 h was -4.24%.

For `CC(NC(=O)Nc1cccnc1N1CCOCC1)c1ccccn1` (stereo not drawn), the cytotoxicity at 70.5 h is -8.36%.

For the molecule `CCOC1CCCN(C(=O)CCOc2ccc(C)cc2OC)C1` (stereo not drawn), the cytotoxicity at 70.5 h was 24.8%.

As for `CC(C)CN1CCN(C(=O)c2[nH]nnc2Nc2ccccc2F)CC1`, the cytotoxicity at 70.5 h stood at 8.05%.

Take `O=C(CCc1nc2cccnc2[nH]1)Nc1ccc2c(c1)NC(=O)CO2`: the cytotoxicity at 70.5 h was found to be 8.55%.

For `COCc1noc(C2(c3ccc(F)cc3)CC2)n1`, the cytotoxicity at 70.5 h was determined as 12.6%.

Take `Cc1cc(NC(=O)CNC2CCCN(c3cccnn3)C2)on1` (stereo not drawn): the cytotoxicity at 70.5 h was 43.8%.

`Cc1ccccc1CC(=O)N1C[C@H]2CC[C@@H]1CN(Cc1cccnc1)C2`: the cytotoxicity at 70.5 h is -4.12%.

For `O=C(O)C1(Cc2ccccc2Cl)CCN(c2ncccn2)CC1`, the cytotoxicity at 70.5 h was -10.5%.

Consider `Cc1ccc2nc(C)c(C)c(C(=O)N[C@H]3COC[C@@H]3N3CCCC3)c2c1`, for which the cytotoxicity at 70.5 h is -3.96%.

On to `CC(C)N(C)Cc1cncc2c1CCN(C1CCOCC1)C2`, for which the cytotoxicity at 70.5 h is -6.55%.

Regarding `Cc1cnn(C2CCCN(C(=O)c3cn4ccccc4n3)C2)c1` (stereo not drawn), the cytotoxicity at 70.5 h was determined as 17.4%.

On to `O=C(Cc1ccc2c(c1)CCO2)Nc1cccnc1-n1cncn1`, for which the cytotoxicity at 70.5 h came to 16.3%.

For the molecule `COCC(=O)N1CCCC2(CCN(c3ccsc3)C2=O)C1` (stereo not drawn), the cytotoxicity at 70.5 h amounted to 32.8%.

For `OCCN1CCN(CC(O)c2cc(Cl)ccc2Cl)CC1` (stereo not drawn), the cytotoxicity at 70.5 h is -3.64%.
